Measurements from paper PMC8279492, “Quinolinonyl Non-Diketo Acid Derivatives as Inhibitors of HIV-1 Ribonuclease H and Polymerase Functions of Reverse Transcriptase” (Journal of Medicinal Chemistry, 2021).
Where two headings read alike, the source gives them in different places.

Columns and labels:
[1] = Compounds' toxicity, CellTiter 96 AQueous One Solution Cell Proliferation Assay; assay type: cell-based; details: human, HeLa-CD4-LTR-β-gal cells
Protocol: (§1) HIV-1 replication was monitored using HeLa-CD4-LTR-β-gal reporter cells as previously described.[69] Briefly, β-galactosidase activity was monitored 24 h post infection using a replication-competent HIV produced in-house (H9-laï coculture) and a serial dilution of molecules or an equivalent volume of DMSO. In parallel, compounds’ toxicity was determined at 24 h in the same cell line using CellTiter 96 AQueous One Solution Cell Proliferation Assay (Promega, France).

HIV-1 RT-RDDP activity = target: T1, HIV-1 RT-RDDP activity (Human immunodeficiency virus type 1 group M subtype B, UniProt P03366); test: Polymerase assay (RNA-dependent DNA polymerase); assay type: biochemical
T1 construct: His-tagged p66/p51 HIV-1 RT group M subtype B; His; made in house; host or cells: Escherichia coli M15
Protocol: (§2) His-tagged p66/p51 HIV-1 RT group M subtype B coded in a p6HRT-prot plasmid was expressed in the Escherichia coli strain M15.[65] Heterodimeric RTs were expressed essentially and purified as described.[66]
The HIV-1 RT-associated RNA-dependent DNA polymerase activity was measured as described.[65] Briefly, the reaction was carried out in a black 96-well plate in a total volume of 25 μL. Serial dilutions of compounds were added to the reaction mix containing 60 mM Tris HCl buffer pH 8.1, 8 mM MgCl2, 60 mM KCl, 13 mM DTT, 2.5 mM poly(A)-oligo(dT), and […].

[2] = target: T2, HIV-1 RT-associated RNase H activity (Human immunodeficiency virus type 1 group M subtype B, UniProt P03366); test: biochemical; assay type: biochemical
T2 construct: His-tagged p66/p51 HIV-1 RT group M subtype B; His; made in house; host or cells: Escherichia coli M15
Protocol: (11) and β-thujaplicinol (BTP) used as positive controls.
as §2
The HIV-1 RT-associated RNase H activity was measured as described.[68] Briefly, the reaction was carried out in a black 96-well plate in a total volume of 100 μL. […] Experiments were performed in duplicate and replicated at least two times. Data were analyzed as described.[36]

HIV-1 replication = HIV-1 replication in HeLa-CD4-LTR-β-gal reporter cells; assay type: cell-based; details: for EC50: Human immunodeficiency virus 1
Protocol: as §1

HIV-1 IN = HIV-1 IN (Human immunodeficiency virus type 1 group M subtype B, UniProt P12497); test: biochemical
Protocol: His-tagged NL4-3 IN was expressed from a pET15b plasmid in the E. coli BL21 pLys strain. Recombinant protein was purified as previously described[67] following a batch preparation on Ni-NTA beads (Qiagen, Paris, France).
Both oligonucleotides were purchased from Integrated DNA Technologies, Inc. (Coralville, IA), and the gel was purified in-house. ST reactions were performed by adding molecules or an equivalent volume of 100% dimethyl sulfoxide (DMSO, used as the drug solvent) to a mixture of 20 nM duplex DNA substrate and 400 nM IN in 50 mM MOPS pH 7.2, 7.5 mM MgCl2, and 14 mM 2-mercaptoethanol. Mixtures were incubated at 37 °C for 2 h, and the reaction was quenched by addition of an equal volume of loading buffer [formamide containing 1% sodium dodecyl sulfate (SDS), 0.25% bromophenol blue, and xylene cyanol]. […] Dried gels were visualized using a FLA5000 (Fuji Photo Film, Tokyo, Japan). Densitometric analyses were performed using ImageQuant 5.1 software from GE Healthcare.

IN = details: supplement CSV, earlier compounds 1 and 2; ref 29−33; read-out: IN ST IC50; cited from earlier work
[3] = CC50 (cytotoxic concentration 50%), 24 h
[4] = anti-RH activity (IC50 ± SD), HIV-1 RT-associated RNase H activity, dose-response curves, no preincubation
[5] = HeLa-CD4-LTR-β-gal cells, 24 h post infection, read-out: antiviral activity EC50

SMILES	CC50 at 24 h [1, 3] [µM]	IC50 (HIV-1 RT-RDDP activity) [µM]	IC50 [2, 4] [µM]	SI (selectivity index = CC50/EC50) (HIV-1 replication)	EC50 (HIV-1 replication; [5]) [µM]	IC50 (HIV-1 IN) [µM]	EC50 (HIV-1 replication; supplement CSV, read-out: EC50) [µM]	CC50 at 24 h ([1]; supplement CSV, read-out: CC50) [µM]	IC50 ([2]; RH IC50 (uM), supplement CSV) [µM]	IC50 (IN) [µM]
O=C(/C=C/c1ccc2c(c1)c(=O)c(C(=O)O)cn2Cc1ccc(F)cc1)c1ccccc1 [4k, (E)-1-(4-Fluorobenzyl)-4-oxo-6-(3-oxo-3-phenylprop-1-en-1-yl)-1,4-dihydroquinoline-3 carboxylic Acid]	17 ± 4	> 100	5.9 ± 0.6	3.1	5.4 ± 3.1	3.38 ± 0.42				
O=C(O)c1cn(Cc2ccc(F)cc2)c2ccc(OCc3ccccc3)cc2c1=O [4l, 6-(Benzyloxy)-1-(4-fluorobenzyl)-4-oxo-1,4-dihydroquinoline-3-carboxylic Acid]	> 100	38.5 ± 7.1	34 ± 0.1	>8.6	11.7 ± 2.5	0.41 ± 0.03	11.7 ± 2.15			
O=C(O)c1cn(Cc2ccc(F)cc2)c2ccc(OCc3cccc(Cl)c3Cl)cc2c1=O [4m, 6-((2,3-Dichlorobenzyl)oxy)-1-(4-fluorobenzyl)-4-oxo-1,4-dihydroquinoline-3-carboxylic Acid]	> 200	5.6 ± 0.6	8.19 ± 0.05	>15	13.3 ± 4.5	> 100		> 50		
O=C(O)c1cn(Cc2ccc(F)cc2)c2ccc(OCc3ccc(Cl)c(Cl)c3)cc2c1=O [4n, 6-((3,4-Dichlorobenzyl)oxy)-1-(4-fluorobenzyl)-4-oxo-1,4-dihydroquinoline-3-carboxylic Acid]	> 200	2 ± 0.8	29.5 ± 0.5	>12.4	16.1 ± 5.5	3.25 ± 0.85		> 50	29.5 ± 0.55	
O=C(O)c1cn(Cc2ccc(F)cc2)c2ccc(OCc3ccc4c(c3)OCO4)cc2c1=O [4q, 6-(Benzo[d][1,3]dioxol-5-ylmethoxy)-1-(4-fluorobenzyl)-4-oxo-1,4-dihydroquinoline-3-carboxylic Acid]	> 200	5.1 ± 1.8	13.5	>17.7	11.3 ± 3.5	> 100		> 50		
O=C(O)c1cn(Cc2ccc(F)cc2)c2ccc(OCc3ccc(-c4ccccc4)cc3)cc2c1=O [4s, 6-([1,1′-Biphenyl]-4-ylmethoxy)-1-(4-fluorobenzyl)-4-oxo-1,4-dihydroquinoline-3-carboxylic Acid]	> 100	11.6 ± 5.5	7.47 ± 1.55	>40	2.5 ± 1.03	> 250		> 16		
CCOC(=O)c1cn(Cc2ccc(F)cc2)c2ccc(OCc3cccc(Cl)c3Cl)cc2c1=O [5m, Ethyl 6-((2,3-Dichlorobenzyl)oxy)-1-(4-fluorobenzyl)-4-oxo-1,4-dihydroquinoline-3-carboxylate]	21.6 ± 2.8	1.88 ± 0.04	24	1.2	17.8 ± 2.3	0.05 ± 0.01		23.9 ± 4.5		
CCOC(=O)c1cn(Cc2ccc(F)cc2)c2ccc(OCc3ccc(Cl)c(Cl)c3)cc2c1=O [5n, Ethyl 6-((3,4-Dichlorobenzyl)oxy)-1-(4-fluorobenzyl)-4-oxo-1,4-dihydroquinoline-3-carboxylate]	20.6 ± 4.4	24.1 ± 8.6	37.2 ± 7.6	1.4	14.6 ± 3.1	9.45 ± 0.55			37.2 ± 7.58	
CCOC(=O)/C(O)=C/C(=O)/C=C/c1cccn1Cc1ccc(F)cc1 [compound 1]										90
